Measured values as given in patent publication US6656729B2, “Compositions which inhibit apoptosis, methods of purifying the compositions and uses thereof” (Sky High, LLC, priority 1993, dated 2003).

Tested on: C3H 10T1/2 cells
Assay: Apoptosis assay with C3H 10T1/2 cells (serum deprivation)
Format: cell-based
Settings: for ACTIVITY (anti-apoptotic activity of known phospholipids): serum-deprived 10T½ cells, dissolved at 10 mM (100× test concentration), pre-incubation in 1% BSA, final BSA ≦0.01%
Description: In order to determine the apoptotic activity of the PAIs, the following experiment was performed. […] Exponential growth phase was assured by seeding at 2000 cells per 1 ml (5 ml for a 60 mm culture plate) five days prior to the beginning of the experiment. At T=0, cultures were transferred to serum-free medium, as an apoptosis stimulus, and seed extracts were added. Controls included 10^−7 M 12-O-tetradecanoyl phorbol-13-acetate (TPA) to ensure the responsiveness of the cell culture. The PAI samples prepared by extraction with ethanol and by gel filtration were added to serum free medium at 0.1 g dry weight equivalents and sterile filtered prior to addition to the cultures. Assays were performed in triplicate or quadruplicate. Analyses of the cell responses were made after between 22 and 28 hours of serum deprivation and/or treatment with soy flour derived PAIs. Two assays were performed on each cell culture plate consisting of differential cell counts.
1. All non-adherent or loosely adherent cells were removed from the culture dish and counted by appropriate techniques, typically counting by electric particle counting instrument. These are the apoptotic cells, the serum deprived released cells (SDR), released by the action of cultivation in serum-free medium.
2. The remaining adherent cells (ADH) are exposed to a buffered, typically pH 7.3, balanced salt solution such as Hanks Balanced Salt Solution without calcium and magnesium salts containing 0.05% trypsin and 0.53 mM ethylenediaminetetraacetic acid (EDTA). Each culture is incubated at either room temperature or 37° C. on a rocking platform to ensure uniform distribution of the trypsin reagent over the culture surface. After a standardized period of time, typically 10 minutes, the released cells are removed from each culture dish and measured by the same means as described above, typically electronic particle counting.
All commercial samples were dissolved at a concentration of 10 mM (100× test concentration) in 1% bovine serum albumin (BSA), 0.5 mM calcium chloride, 0.5 mM magnesium chloride, at room temperature. All compounds were tested after pre-incubation in 1% BSA. The final concentration of BSA in the apoptosis was ≦0.01%. […] All tested compounds were obtained from Sigma. The BSA was obtained from Boehringer Mannheim.

CCCCCCCC/C=C\CCCCCCCC(=O)OC[C@@H](O)COP(=O)(O)O (stereo in doubt) [L-a-lysophosphatidic acid, oleoyl (C18:1, [cis]-9)]
Anti-apoptotic activity (in words) (in the presence of Bowman-Birk inhibitors): does not confer anti-apoptotic activity | Anti-apoptotic activity (in words) (in the presence of a protein or proteins to which it specifically binds (serum albumin)): possess anti-apoptotic activity | Anti-apoptotic activity (in words) (in the presence of fraction B): possessed anti-apoptotic activity | Effect of pre-incubation on anti-apoptotic activity (pre-incubation with BSA (FIG. 14)): enhanced | Effect of pre-incubation on anti-apoptotic activity (pre-incubation with fraction B (FIG. 14)): enhanced | ACTIVITY (anti-apoptotic activity of known phospholipids): ++ | Anti-apoptotic activity (in words) (substance or fraction alone): no anti-apoptotic activity

CCCCCCCC/C=C\CCCCCCCC(=O)OC[C@H](COP(=O)(O)O)OC(=O)CCCCCCC/C=C\CCCCCCCC (stereo in doubt) [L-a-phosphatidic acid, dioleoyl (C18:1, [cis]-9)]
ACTIVITY (anti-apoptotic activity of known phospholipids): 0

L-a-lysophosphatidyl ethanolamine
ACTIVITY (anti-apoptotic activity of known phospholipids): 0

L-a-phosphatidyl choline [L-a-phosphatidyl choline Type V-EA]
ACTIVITY (anti-apoptotic activity of known phospholipids): 0

L-a-phosphatidyl ethanolamine [L-a-phosphatidyl ethanolamine, Type IV]
ACTIVITY (anti-apoptotic activity of known phospholipids): 0

L-a-phosphatidyl inositol
ACTIVITY (anti-apoptotic activity of known phospholipids): 0
